Measurements: patent US6897209B2, “Labelled factor XIIIa substrates” (GE Healthcare Limited, priority 1997, dated 2005)

Experiments:
human plasma clots [1] = target: T1, human plasma clots (Homo sapiens, UniProt P00488); assay: Incorporation into human plasma clots (in vitro plasma clot assay); type: biochemical; conditions: for % specific uptake*: % retained with thrombin − % retained no thrombin; for % retained in plasma clot assay (with thrombin): human plasma with thrombin and calcium chloride, 60 minutes, ca. 20° C.
T1 construct: Factor XIII is transformed into its active form Factor XIIIa by thrombin in the presence of calcium ions; from tissue; host or cells: human plasma, clotted in vitro with thrombin and calcium chloride
T1 sequence (P00488 39-732): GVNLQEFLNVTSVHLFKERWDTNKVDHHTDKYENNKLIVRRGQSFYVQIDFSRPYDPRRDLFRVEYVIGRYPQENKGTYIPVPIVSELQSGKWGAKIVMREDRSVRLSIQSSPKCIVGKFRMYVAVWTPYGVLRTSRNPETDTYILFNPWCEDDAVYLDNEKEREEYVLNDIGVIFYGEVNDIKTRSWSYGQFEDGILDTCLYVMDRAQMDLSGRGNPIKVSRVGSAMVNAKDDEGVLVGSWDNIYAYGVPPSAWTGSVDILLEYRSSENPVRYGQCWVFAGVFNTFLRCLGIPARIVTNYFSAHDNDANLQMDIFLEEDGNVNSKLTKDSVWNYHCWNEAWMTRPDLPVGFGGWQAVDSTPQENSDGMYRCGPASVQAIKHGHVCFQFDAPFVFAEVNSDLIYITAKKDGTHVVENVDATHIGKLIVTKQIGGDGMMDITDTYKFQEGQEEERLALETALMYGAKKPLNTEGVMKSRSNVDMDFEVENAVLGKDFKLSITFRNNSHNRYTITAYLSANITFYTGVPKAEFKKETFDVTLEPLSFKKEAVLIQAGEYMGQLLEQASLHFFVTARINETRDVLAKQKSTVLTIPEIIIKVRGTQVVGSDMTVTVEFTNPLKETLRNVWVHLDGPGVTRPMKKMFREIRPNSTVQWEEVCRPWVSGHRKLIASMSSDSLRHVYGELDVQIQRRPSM
Description: (§1) Incorporation of radiolabelled substrates into fibrin was investigated by induction of an in vitro human plasma clot in the following manner. To a siliconised 5 ml glass vial was added, (a) 800 μl of Tris(hydroxymethyl)aminomethane buffered saline pH 7.5 containing calcium chloride (50 mM Tris, 150 mM sodium chloride, 4 mM calcium chloride.), (b) 40 μl of physiological salt solution containing 100 units of thrombin per ml, (c) 400 μl of human plasma containing the radiolabelled substrate at a concentration of typically 10 kBq/ml. To aid induction of clot a roughened glass rod was added to the reaction vial. Control vials were prepared similarly but with the omission of thrombin and calcium chloride.
(§2) The proportion of total radioactivity was calculated by counting in suitable detection apparatus.
(§3) The fraction of radioactivity retained on the filter, after subtraction of the non-specific binding determined from the control, is a measure of incorporation into the filtered clots.

human plasma clots [2] = assay: as above; type: biochemical; conditions: control vials without thrombin and calcium chloride, 60 minutes
Description: as §1, §2, §3

Factor XIIIa = target: T2, Factor XIIIa (Homo sapiens, UniProt P00488); assay: Factor XIIIa dependency of incorporation (dimethylcasein uptake, normal vs Factor XIII deficient plasma); type: biochemical; conditions: 1 KBq/ml, 60 minutes; uptake in normal plasma minus Factor XIII deficient plasma
T2 construct: Factor XIII is transformed into its active form Factor XIIIa by thrombin in the presence of calcium ions; from tissue; host or cells: human plasma
T2 sequence (P00488 39-732 limits assumed): T1 sequence (P00488 39-732)
Description: The assay was changed by replacing the mercaptoethanol with aprotinin at a final concentration of 2 μg/ml, and dimethylcasein (DMC) was used instead of casein.

[3] = Normal rat biodistribution; type: in vivo; conditions: i.v., male Wistar rats, Mean±SD n=3
Description: The resolution of a clot image is dependant on the combination of rate of incorporation of the radiopharmaceutical and its blood/tissues clearance rate. For this reason the biodistribution of several compounds has been determined in rats. Male Wistar (100-150 g) rats were injected i.v. with 0.1-0.2 ml of radiolabelled tracer solution (8 MBq/ml) and dissected at different times post-injection. The % ID in each of the selected tissues was measured. Some animals were kept in metabolism cages to be able to determine the % ID excreted in urine and faeces. The dissection times used for the majority of the agents was 2, 15, 30, 60, 240 min. Data are shown as % ID, Mean±SD, (n=3).

[4] = tested on: clots induced in rat inferior vena cava; assay: Incorporation into clots induced in a rat model (rat inferior vena cava model); type: in vivo; conditions: rat IVC model; for Clot/Blood / Clot/Heart / Clot/Liver / Clot/Lung: 60 min; for % ID/g (clot uptake) / Relative conc (cpm/g of clot by dose/g animal): compound injected 5 min post-induction, clot removed after 60 min
Description: The rats (Male Wistar, 250-350 g) were anaesthetised with 15% urethane. After laparotomy, the vena cava was isolated and freed of surrounding fat tissue. […] The average weight of the clots formed in this model was around 27 mg, n=32, (5-50 mg range). The so compounds were injected 5 min post-induction. After 60 min the animals were sacrificed and the clot removed, weighed and counted. Other tissues e.g. blood, lung, heart, were also dissected and counted. The uptake of tracer into the clot was determined as the relative concentration (cpm/g of clot by dose/g animal ) and clot to background tissue.

## CC(=NO)C(C)(C)NCC(C)(CNC(=O)C1CCC(CNC(=O)c2ccc(S(=O)(=O)NCCCCCN)cc2)CC1)CNC(C)(C)C(C)=NO (centres unmarked) [Compound 8, 3,3,6,9,9-pentamethyl-6-N[4-N-{(4-N-(5-aminopentyl)amidosulphonyl)benzoyl}aminomethylcyclohexylcarbonyl]aminomethyl-4,8-diazaundecane-2,10-dione dioxime]
Human plasma clots [1]
  % specific uptake*: 18.4%
  % retained in plasma clot assay (with thrombin): 23%
Human plasma clots [2]
  % retained in plasma clot assay (no thrombin): 4.6%
Factor XIIIa
  % specific DMC casein uptake: 45%
[3]; 2 min post-injection
  % ID Blood: 22.59 ± 1.44 % ID
  % ID GI Tract: 9.75 ± 1.2 % ID
  % ID Heart: 0.63 ± 0.17 % ID
  % ID Kidney: 4.56 ± 0.29 % ID
  % ID Liver: 19.6 ± 2.16 % ID
  % ID Lung: 1.61 ± 0.06 % ID
  % ID Muscle: 21.6 ± 2.08 % ID
  % ID Urine: 0.13 ± 0.06 % ID
[3]; 15 min post-injection
  % ID Blood: 1.22 ± 0.06 % ID
  % ID GI Tract: 70.9 ± 1.3 % ID
  % ID Heart: 0.06 ± 0.04 % ID
  % ID Kidney: 1.9 ± 0.95 % ID
  % ID Liver: 10.0 ± 0.86 % ID
  % ID Lung: 0.21 ± 0.03 % ID
  % ID Muscle: 3.97 ± 0.56 % ID
  % ID Urine: 6.23 ± 1.23 % ID
[3]; 30 min post-injection
  % ID Blood: 0.55 ± 0.19 % ID
  % ID GI Tract: 80.7 ± 2.4 % ID
  % ID Kidney: 1.8 ± 0.42 % ID
  % ID Liver: 4.53 ± 0.5 % ID
  % ID Lung: 0.1 ± 0.04 % ID
  % ID Muscle: 1.6 ± 0.82 % ID
  % ID Urine: 7.18 ± 1.24 % ID
[3]; 60 min post-injection
  % ID Blood: 0.39 ± 0.05 % ID
  % ID GI Tract: 85.4 ± 0.12 % ID
  % ID Heart: 0.03 ± 0.01 % ID
  % ID Kidney: 1.06 ± 0.22 % ID
  % ID Liver: 2.63 ± 0.38 % ID
  % ID Lung: 0.08 ± 0.01 % ID
  % ID Muscle: 1.22 ± 0.28 % ID
  % ID Urine: 7.71 ± 0.49 % ID
[3]; 240 min post-injection
  % ID Blood: 0.1 ± 0.02 % ID
  % ID GI Tract: 87.5 ± 2.8 % ID
  % ID Heart: 0.01 ± 0.02 % ID
  % ID Kidney: 0.85 ± 0.08 % ID
  % ID Liver: 1.39 ± 0.29 % ID
  % ID Lung: 0.05 ± 0.02 % ID
  % ID Muscle: 0.22 ± 0.31 % ID
  % ID Urine: 8.55 ± 2.76 % ID
[4]
  Clot/Blood: 4.1
  Clot/Heart: 8.1
  Clot/Liver: 0.40
  Clot/Lung: 4.4
  % ID/g (clot uptake): 0.17 ± 0.09 % ID/g
  Relative conc (cpm/g of clot by dose/g animal): 0.59 ± 0.31

## CC(=NO)C(C)(C)NCCN(CCNC(=O)C1CCC(CNC(=O)c2ccc(S(=O)(=O)NCCCCCN)cc2)CC1)CCNC(C)(C)C(C)=NO (centres unmarked) [Compound 17]
Human plasma clots [1]
  % specific uptake*: 14.7%
  % retained in plasma clot assay (with thrombin): 17%
Human plasma clots [2]
  % retained in plasma clot assay (no thrombin): 2.3%
Factor XIIIa
  % specific DMC casein uptake: 22.5%
[3]; 2 min post-injection
  % ID Blood: 18.5 ± 1.06 % ID
  % ID GI Tract: 6.31 ± 0.6 % ID
  % ID Heart: 0.34 + 0.17 % ID
  % ID Kidney: 12.3 ± 0.53 % ID
  % ID Liver: 4.3 ± 0.06 % ID
  % ID Lung: 1.69 ± 0.1 % ID
  % ID Muscle: 25.9 ± 1.8 % ID
  % ID Spleen: 0.33 ± 0.07 % ID
  % ID Urine: 1.38 ± 1.34 % ID
[3]; 15 min post-injection
  % ID Blood: 9.46 ± 0.24 % ID
  % ID GI Tract: 9.6 ± 0.9 % ID
  % ID Heart: 0.27 + 0.06 % ID
  % ID Kidney: 7.32 ± 0.76 % ID
  % ID Liver: 4.25 ± 0.85 % ID
  % ID Lung: 0.9 ± 0.16 % ID
  % ID Muscle: 15.6 ± 1.05 % ID
  % ID Spleen: 0.17 ± 0.04 % ID
  % ID Urine: 30.1 ± 1.28 % ID
[3]; 30 min post-injection
  % ID Blood: 5.7 ± 0.42 % ID
  % ID GI Tract: 13.07 ± 1.4 % ID
  % ID Heart: 0.17 + 0.04 % ID
  % ID Kidney: 7.1 ± 1.89 % ID
  % ID Liver: 2.94 ± 0.22 % ID
  % ID Lung: 0.54 ± 0.07 % ID
  % ID Muscle: 8.51 ± 0.93 % ID
  % ID Spleen: 0.11 ± 0.03 % ID
  % ID Urine: 46.9 ± 3.71 % ID
[3]; 60 min post-injection
  % ID Blood: 2.23 ± 0.15 % ID
  % ID GI Tract: 17.7 ± 3.8 % ID
  % ID Heart: 0.07 + 0.02 % ID
  % ID Kidney: 3.77 ± 0.73 % ID
  % ID Liver: 1.79 ± 0.45 % ID
  % ID Lung: 0.28 ± 0.02 % ID
  % ID Muscle: 4.31 ± 0.95 % ID
  % ID Spleen: 0.07 ± 0.02 % ID
  % ID Urine: 65.8 ± 3.4 % ID
[3]; 240 min post-injection
  % ID Blood: 0.09 ± 0.02 % ID
  % ID GI Tract: 25.4 ± 5.2 % ID
  % ID Heart: 0.01 % ID
  % ID Kidney: 5.1 ± 0.99 % ID
  % ID Liver: 1 + 0.17 % ID
  % ID Lung: 0.1 ± 0.01 % ID
  % ID Muscle: 0.81 ± 0.26 % ID
  % ID Spleen: 0.03 ± 0.02 % ID
  % ID Urine: 66.08 ± 4.98 % ID
[4]
  Clot/Blood: 1.15
  Clot/Heart: 2.7
  Clot/Liver: 1.26
  Clot/Lung: 1.54
  % ID/g (clot uptake): 0.32 ± 0.04 % ID/g
  Relative conc (cpm/g of clot by dose/g animal): 1.1 ± 0.17
